experiment: log P (pH2.3); assay type: physicochemical; conditions: method [b]: LC-MS, acidic range, pH 2.7, 0.1% aqueous formic acid and acetonitrile

Row | Structure (SMILES) | log p
1 | Cc1cc(C(F)(F)F)nn1CC(=O)N1CCC(c2nc(C#Cc3ccccc3Cl)cs2)CC1 [Example I-101] | 4.12^[b]
2 | Cc1cc(C(F)(F)F)nn1CC(=O)N1CCC(c2nc(C#Cc3ccc(Cl)cc3)cs2)CC1 [Example I-102] | 4.37^[b]
3 | COc1ccc(C#Cc2csc(C3CCN(C(=O)Cn4nc(C(F)(F)F)cc4C)CC3)n2)c(OC)c1 [Example I-104] | 3.67^[b]
4 | Cc1cc(C(F)(F)F)nn1CC(=O)N1CCC(c2nc(C#Cc3ccc(Cl)cc3Cl)cs2)CC1 [Example I-105] | 4.72^[b]
5 | COc1ccc(OC)c(C#Cc2csc(C3CCN(C(=O)Cn4nc(C(F)(F)F)cc4C)CC3)n2)c1 [Example I-106] | 3.65^[b]
6 | CCc1cc(CC)n(CC(=O)N2CCC(c3nc(CCc4cccc5ccccc45)cs3)CC2)n1 [Example I-107] | 4.04^[b]
7 | CCc1cc(C(F)(F)F)nn1CC(=O)N1CCC(c2nc(CCc3cccc4ccccc34)cs2)CC1 [Example I-108] | 4.65^[b]
8 | O=C(Cn1nc(C(F)F)cc1C(F)F)N1CCC(c2nc(CCc3cccc4ccccc34)cs2)CC1 [Example I-109] | 4.25^[b]
9 | CC(C)(C)c1cc(C(F)(F)F)n(CC(=O)N2CCC(c3nc(CCc4cccc5ccccc45)cs3)CC2)n1 [Example I-110] | 5.36^[b]
10 | CC(C)(C)c1cc(C(F)(F)F)nn1CC(=O)N1CCC(c2nc(CCc3cccc4ccccc34)cs2)CC1 [Example I-111] | 5.14^[b]
11 | CC(C)(C)c1cc(C(F)(F)C(F)(F)F)n(CC(=O)N2CCC(c3nc(CCc4cccc5ccccc45)cs3)CC2)n1 [Example I-112] | 5.78^[b]
12 | CC(C)(C)c1cc(C(F)(F)C(F)(F)F)nn1CC(=O)N1CCC(c2nc(CCc3cccc4ccccc34)cs2)CC1 [Example I-113] | 5.54^[b]
13 | O=C(Cn1nc(C(F)(F)F)cc1C(F)(F)F)N1CCC(c2nc(C#Cc3cccc4ccccc34)cs2)CC1 [Example I-114] | 5.03^[b]
14 | CCc1cc(CC)n(CC(=O)N2CCC(c3nc(C#Cc4cccc5ccccc45)cs3)CC2)n1 [Example I-115] | 4.2^[b]
15 | CCc1cc(C(F)(F)F)nn1CC(=O)N1CCC(c2nc(C#Cc3cccc4ccccc34)cs2)CC1 [Example I-116] | 4.8^[b]
16 | O=C(Cn1nc(C(F)F)cc1C(F)F)N1CCC(c2nc(C#Cc3cccc4ccccc34)cs2)CC1 [Example I-117] | 4.41^[b]
17 | CC(C)(C)c1cc(C(F)(F)F)n(CC(=O)N2CCC(c3nc(C#Cc4cccc5ccccc45)cs3)CC2)n1 [Example I-118] | 5.48^[b]
18 | CC(C)(C)c1cc(C(F)(F)F)nn1CC(=O)N1CCC(c2nc(C#Cc3cccc4ccccc34)cs2)CC1 [Example I-119] | 5.14^[b]
19 | CC(C)(C)c1cc(C(F)(F)C(F)(F)F)nn1CC(=O)N1CCC(c2nc(C#Cc3cccc4ccccc34)cs2)CC1 [Example I-120] | 5.59^[b]
20 | CC(C)c1cc(C(F)(F)F)n(CC(=O)N2CCC(c3nc(CCc4cccc5ccccc45)cs3)CC2)n1 [Example I-121] | 4.89^[b]
21 | CC(C)c1cc(C(F)(F)F)n(CC(=O)N2CCC(c3nc(C#Cc4cccc5ccccc45)cs3)CC2)n1 [Example I-122] | 4.99^[b]
22 | Cc1cc(C(F)(F)F)nn1CC(=O)N1CCC(c2nc(CCc3ccc(Cl)cc3Cl)cs2)CC1 [Example I-123] | 4.74^[b]
23 | O=C(Cc1cc(Br)ccc1Br)N1CCC(c2nc(C#Cc3cccc4ccccc34)cs2)CC1 [Example I-124] | 5.47^[b]
24 | C#Cc1csc(C2CCN(C(=O)Cc3cc(Cl)ccc3Cl)CC2)n1 [Example I-125] | 3.08^[b]
25 | Cc1ccccc1CCc1csc(C2CCN(C(=O)Cn3nc(C(F)(F)F)cc3C)CC2)n1 [Example I-126] | 4.08^[b]
26 | Cc1cc(C(F)(F)F)nn1CC(=O)N1CCC(c2nc(CCc3c(F)cccc3F)cs2)CC1 [Example I-128] | 3.9^[b]
27 | Cc1cc(C(F)(F)F)nn1CC(=O)N1CCC(c2nc(CCC3CCCCC3)cs2)CC1 [Example I-132] | 5.01^[b]
28 | Cc1cc(C(F)(F)F)nn1CC(=O)N1CCC(c2nc(CCC3CCCc4ccccc43)cs2)CC1 (stereo not shown) [Example I-133] | 4.95^[b]

same assay, conditions: method [b]: LC-MS, acidic range, pH 2.7, 0.1% aqueous formic acid and acetonitrile; HPLC on reversed-phase C 18

Row | Structure (SMILES) | log p
29 | O=C(Cn1nc(C(F)(F)F)cc1C(F)(F)F)N1CCC(c2nc(CCC3CCCCC3)cs2)CC1 [Example I-140] | 5.76^[b]
30 | O=C(Cn1nc(C(F)F)cc1C(F)F)N1CCC(c2nc(CCC3CCCCC3)cs2)CC1 [Example I-148] | 4.87^[b]
31 | O=C(Cn1nc(C(F)F)cc1C(F)F)N1CCC(c2nc(CCC3CCCc4ccccc43)cs2)CC1 (stereo not shown) [Example I-149] | 4.78^[b]
32 | Cc1ccc(C)c(CC(=O)N2CCC(c3nc(CCc4ccccc4C)cs3)CC2)c1 [Example I-158] | 4.67^[b]
33 | Cc1ccc(C)c(CC(=O)N2CCC(c3nc(CCc4c(F)cccc4F)cs3)CC2)c1 [Example I-160] | 4.48^[b]
34 | Cc1ccccc1C#Cc1csc(C2CCN(C(=O)Cn3nc(C(F)(F)F)cc3C)CC2)n1 [Example I-206] | 4.15^[b]
35 | Cc1cc(C(F)(F)F)nn1CC(=O)N1CCC(c2nc(C#Cc3ccccc3Br)cs2)CC1 [Example I-207] | 4.16^[b]
36 | Cc1cc(C(F)(F)F)nn1CC(=O)N1CCC(c2nc(C#Cc3c(F)cccc3F)cs2)CC1 [Example I-208] | 3.83^[b]
37 | Cc1cccnc1C#Cc1csc(C2CCN(C(=O)Cn3nc(C(F)(F)F)cc3C)CC2)n1 [Example I-210] | 2.72^[b]
38 | Cc1ccccc1C#Cc1csc(C2CCN(C(=O)Cn3nc(C(F)(F)F)cc3C(F)(F)F)CC2)n1 [Example I-212] | 4.73^[b]
39 | O=C(Cn1nc(C(F)(F)F)cc1C(F)(F)F)N1CCC(c2nc(C#Cc3ccccc3Br)cs2)CC1 [Example I-213] | 4.74^[b]
40 | O=C(Cn1nc(C(F)(F)F)cc1C(F)(F)F)N1CCC(c2nc(C#Cc3c(F)cccc3F)cs2)CC1 [Example I-214] | 4.4^[b]
41 | Cc1cccnc1C#Cc1csc(C2CCN(C(=O)Cn3nc(C(F)(F)F)cc3C(F)(F)F)CC2)n1 [Example I-216] | 3.37^[b]
42 | Cc1ccccc1C#Cc1csc(C2CCN(C(=O)Cn3nc(C(F)F)cc3C(F)F)CC2)n1 [Example I-218] | 3.99^[b]
43 | O=C(Cn1nc(C(F)F)cc1C(F)F)N1CCC(c2nc(C#Cc3ccccc3Br)cs2)CC1 [Example I-219] | 4.04^[b]
44 | O=C(Cn1nc(C(F)F)cc1C(F)F)N1CCC(c2nc(C#Cc3c(F)cccc3F)cs2)CC1 [Example I-220] | 3.7^[b]
45 | Cc1cccnc1C#Cc1csc(C2CCN(C(=O)Cn3nc(C(F)F)cc3C(F)F)CC2)n1 [Example I-222] | 2.68^[b]
46 | Cc1noc(C)c1C#Cc1csc(C2CCN(C(=O)Cn3nc(C(F)F)cc3C(F)F)CC2)n1 [Example I-223] | 3.09^[b]
47 | Cc1ccccc1C#Cc1csc(C2CCN(C(=O)Cc3cc(Cl)ccc3Cl)CC2)n1 [Example I-224] | 4.91^[b]

same assay, conditions: method [c]: LC-MS, neutral range, pH 7.8, 0.001 molar aqueous ammonium bicarbonate and acetonitrile

Row | Structure (SMILES) | log p
48 | Cc1cc(C(F)(F)F)nn1CC(=O)N1CCC(c2nc(CCc3ccc(Cl)cc3Cl)cs2)CC1 [Example I-123] | 4.77^[c];
49 | O=C(Cc1cc(Br)ccc1Br)N1CCC(c2nc(C#Cc3cccc4ccccc34)cs2)CC1 [Example I-124] | 5.52^[c];
50 | Cc1ccccc1CCc1csc(C2CCN(C(=O)Cn3nc(C(F)(F)F)cc3C)CC2)n1 [Example I-126] | 4.16^[c];
51 | Cc1cc(C(F)(F)F)nn1CC(=O)N1CCC(c2nc(CCc3c(F)cccc3F)cs2)CC1 [Example I-128] | 3.97^[c],

same assay, conditions: method [c]: LC-MS, neutral range, pH 7.8, 0.001 molar aqueous ammonium bicarbonate solution and acetonitrile; HPLC on reversed-phase C 18

Row | Structure (SMILES) | log p
52 | Cc1ccc(C)c(CC(=O)N2CCC(c3nc(CCc4ccccc4C)cs3)CC2)c1 [Example I-158] | 4.77^[c];
53 | Cc1ccc(C)c(CC(=O)N2CCC(c3nc(CCc4c(F)cccc4F)cs3)CC2)c1 [Example I-160] | 4.55^[c];
54 | Cc1ccccc1C#Cc1csc(C2CCN(C(=O)Cn3nc(C(F)(F)F)cc3C)CC2)n1 [Example I-206] | 4.15^[c];
55 | Cc1cc(C(F)(F)F)nn1CC(=O)N1CCC(c2nc(C#Cc3ccccc3Br)cs2)CC1 [Example I-207] | 4.19^[c];
56 | Cc1cc(C(F)(F)F)nn1CC(=O)N1CCC(c2nc(C#Cc3c(F)cccc3F)cs2)CC1 [Example I-208] | 3.86^[c];
57 | Cc1cccnc1C#Cc1csc(C2CCN(C(=O)Cn3nc(C(F)(F)F)cc3C)CC2)n1 [Example I-210] | 2.95^[c];
58 | Cc1ccccc1C#Cc1csc(C2CCN(C(=O)Cn3nc(C(F)F)cc3C(F)F)CC2)n1 [Example I-218] | 4.02^[c];
59 | O=C(Cn1nc(C(F)F)cc1C(F)F)N1CCC(c2nc(C#Cc3ccccc3Br)cs2)CC1 [Example I-219] | 4.04^[c];
60 | O=C(Cn1nc(C(F)F)cc1C(F)F)N1CCC(c2nc(C#Cc3c(F)cccc3F)cs2)CC1 [Example I-220] | 3.73^[c];
61 | Cc1cccnc1C#Cc1csc(C2CCN(C(=O)Cn3nc(C(F)F)cc3C(F)F)CC2)n1 [Example I-222] | 2.86^[c];

— US7943774B2 (priority 2008, dated 2011)
